Experimental data as given in PubChem BioAssay (NCI).
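Five compound concentrations were applied to cells in 96-well plates for 48 hours; endpoints were derived by simple linear interpolation of the resulting dose-response curve. TGI marks complete inhibition of growth.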

Tests used:
Experiment in all cases: DTP human tumour cell line panel, 48 h
HOP-92 NSCLC = tested on: HOP-92 NSCLC
T-47D breast = tested on: T-47D breast
DU-145 prostate = tested on: DU-145 prostate
HCT-15 colon = tested on: HCT-15 colon
OVCAR-5 ovarian = tested on: OVCAR-5 ovarian
MDA-MB-435 = tested on: MDA-MB-435
SK-OV-3 ovarian = tested on: SK-OV-3 ovarian
HT29 colon = tested on: HT29 colon
A498 renal = tested on: A498 renal
MOLT-4 leukemia = tested on: MOLT-4 leukemia

| Compound | TGI (HOP-92 NSCLC) [µM] | TGI (T-47D breast) [µM] | TGI (DU-145 prostate) [µM] | TGI (HCT-15 colon) [µM] | TGI (OVCAR-5 ovarian) [µM] | TGI (MDA-MB-435) [µM] | TGI (SK-OV-3 ovarian) [µM] | TGI (HT29 colon) [µM] | TGI (A498 renal) [µM] | TGI (MOLT-4 leukemia) [µM] |
| --- | --- | --- | --- | --- | --- | --- | --- | --- | --- | --- |
| O=c1oc2ccc([N+](=O)[O-])cc2c(Nc2ccc3c(c2)Sc2ccccc2O3)c1[N+](=O)[O-] | 41.6 | > 100 | 99.5 | 35 | 47.2 | 85 | 47.6 | 74.3 | – | – |
| O=[N+]([O-])c1ccccc1S(=O)(=O)c1ccccc1 | > 100 | – | – | > 100 | > 100 | – | > 100 | > 100 | > 100 | > 100 |
| O=c1cc(NNc2cccc(F)c2)[nH]c(=O)[nH]1 | 30 | 31.7 | > 100 | 30.9 | > 100 | – | > 100 | 29.9 | > 100 | 84.3 |
| COc1cc2cc(C(=O)N3CC(CCl)c4c3cc(NC(=O)OCc3ccc([N+](=O)[O-])cc3)c3ccccc43)[nH]c2c(OC)c1OC (stereo not drawn) | > 90.5 | > 100 | 18 | > 100 | > 100 | > 100 | > 100 | > 100 | – | > 100 |
| CNC(=S)N/N=C(\C(=N/NC(=S)NC)c1ccccn1)c1ccccn1 | > 100 | – | > 100 | > 100 | > 100 | > 100 | > 100 | > 100 | > 100 | – |
| CC(=O)c1ccccc1NCC(=O)Nn1cnc2ccc(S(=O)(=O)Nc3ccccc3C(C)=O)cc2c1=O | > 100 | – | > 100 | > 100 | > 100 | > 100 | > 100 | > 100 | – | > 100 |
| CC(=O)OCC1OC(OCCCCCCO)C(OC(C)=O)C(OC(C)=O)C1OC(C)=O (stereo not drawn) | > 100 | – | – | > 100 | > 100 | > 100 | > 100 | > 100 | > 100 | > 100 |
| COc1ccc2c(c1)C/C(=C\c1cccc3ccccc13)C2=O | – | – | – | > 100 | > 100 | – | > 100 | > 100 | > 100 | > 100 |
| C[n+]1c(-c2ccc(/C=N/Nc3ccnc(N/N=C/c4ccc(-c5cn6ccsc6[n+]5C)cc4)n3)cc2)cn2ccsc21 | > 100 | – | 82 | > 100 | > 100 | 40.1 | > 100 | > 100 | 65.3 | 64.9 |
| CN(CCO)CCCC1COc2ccccc2O1 (stereo not drawn) | > 100 | – | > 100 | > 100 | > 100 | – | > 100 | > 100 | – | > 100 |
| C=CCN1C(=O)/C(=C/c2ccco2)N=C1SC1OC(COC(C)=O)C(OC(C)=O)C(OC(C)=O)C1OC(C)=O (stereo not drawn) | > 100 | – | > 100 | > 100 | > 100 | > 100 | > 100 | – | > 100 | > 100 |
| COP(=O)(OC)C(NC(=O)C(F)(F)F)(c1ccccc1)C(F)(F)F (stereo not drawn) | > 100 | – | – | > 100 | > 100 | – | > 100 | > 100 | > 100 | > 100 |
| CC1(C)O[C@@H](CCl)C[C@H](C#N)O1 | > 100 | – | – | > 100 | > 100 | – | > 100 | > 100 | > 100 | > 100 |
| CCCC(C)n1c(C)nc2c1C(=O)c1ccccc1C2=O (stereo not drawn) | 66.8 | – | – | > 100 | – | – | > 100 | > 100 | – | > 100 |
| CCN(CC)C(=S)Nc1ccc(-c2cc3ccc(O)cc3oc2=O)cc1 | – | – | > 100 | 67.6 | 79.5 | > 100 | > 100 | 30.4 | 96.5 | > 100 |
| COc1cc(C2c3cc4c(cc3OC(Nc3ccccc3)C2C)OCO4)cc(OC)c1O (stereo not drawn) | 48.7 | > 100 | 19.6 | 17.5 | 26.2 | 1.95 | – | 18.1 | – | 11.2 |
| O=C1C=C2SC3C[C@@]24CC1[N+]1=c2c4c(c(O)c4c2=C(C=N4)CC1)N3 | > 100 | – | – | 13.7 | 3.9 | – | 7 | > 26 | 16.6 | 4.11 |
| COc1cc([C@@H]2c3cc4c(cc3[C@@H](Nc3ccccc3C(=O)c3ccccc3)[C@H]3COC(=O)[C@H]23)OCO4)cc(OC)c1OC | – | > 100 | > 100 | 1.18 | > 100 | 1.26 | > 100 | – | – | > 100 |
| O=S(OC12CC3CC(CC(C3)C1)C2)c1cc(Cl)cc(Cl)c1OCc1ccccc1 (stereo not drawn) | – | – | – | – | > 100 | – | > 100 | > 100 | > 100 | > 100 |
| O=C1c2ccccc2C(=O)c2c(O)c(NCCCNCCO)cc(O)c21 | 31.7 | – | – | 24.6 | 24.6 | – | 26.1 | 18.7 | 33.1 | 14 |
